Measured values as given in patent publication US4746658A, “2-phenyl-imidazo-pyrazines, -pyridazines and -triazines” (Dr. Karl Thomae GmbH, priority 1983, dated 1988).

Test system: anesthetized cat
Assay: Determination of the effect on blood pressure and of the positive inotropic effect in the anesthetized cat
Assay type: in vivo
Conditions: injected into vena femoralis, average, at least 3 cats; for Effect on blood pressure in mm Hg (first figure of pair) / Effect on blood pressure in mm Hg (second figure of pair): arterial pressure in aorta abdominalis
Experimental: The above pharmacological properties were ascertained for the compounds of the present invention by the standard pharmacological test method described below, and the results of this test for two representative species of the genus are shown in the table below, where
Determination of the effect on blood pressure and of the positive inotropic effect in the anesthetized cat
The tests were carried out on cats which had been anesthetized with sodium pentobarbital (40 mg/kg i.p.). The animals breathed spontaneously. The arterial blood pressure was measured in the aorta abdominalis with a Statham pressure transducer (P 23 Dc). In order to determine the positive inotropic activity, the pressure in the left ventricle was measured with a catheter-tip manometer (Millar PC-350 A). From this the contractility parameter dp/dt was obtained, using an analog differentiator. The test compounds were injected into a vena femoralis. Polydiol 200 was used as the solvent. Each compound was tested on at least 3 cats.

SMILES | Effect on blood pressure in mm Hg (first figure of pair) (0.6 mg/kg) [mm Hg] | Effect on blood pressure in mm Hg (second figure of pair) (0.6 mg/kg) [mm Hg] | Duration of activity (half life) (0.6 mg/kg) [min] | Increase in dp/dtmax in % (0.6 mg/kg) [%] | Effect on blood pressure in mm Hg (first figure of pair) (0.3 mg/kg) [mm Hg] | Effect on blood pressure in mm Hg (second figure of pair) (0.3 mg/kg) [mm Hg] | Duration of activity (half life) (0.3 mg/kg) [min] | Increase in dp/dtmax in % (0.3 mg/kg) [%]
COc1cc(OS(C)(=O)=O)ccc1-c1nc2nccnc2[nH]1 [A, 2-(2-methoxy-4-methanesulfonyloxy-phenyl)-imidazo[4,5-b]pyrazine] | -24 | -21 | 20 | 54 |  |  |  | 
COc1cc(OS(C)(=O)=O)ccc1-c1nc2cnncc2[nH]1 [B, 2-(2-Methoxy-4-methanesulfonyloxy-phenyl)-imidazo[4,5-d]pyridazine] |  |  |  |  | -31 | -18 | 38 | 36
